Assay results as given in patent US20260070929A1, “METHODS AND COMPOSITIONS FOR MODULATING KRAS(G12D)” (Ranok Therapeutics (Hangzhou) Co. LTD., priority 2022, published 2026).
Like-named read-outs stand apart in the source and are kept apart here.

Key:
[1] = test system: ASPC1 pancreatic adenocarcinoma cells [homozygous G12D]; test: Cancer cell line proliferation (CellTiter-Glo), ASPC1; format: cell-based; details: 72 hr treatment, read-out: ASPC-1 CTG (EC50)
Description: The following cancer cell lines were employed: AGS gastric carcinoma [heterozygous G12D](ATCC, CRL-1739); A-427 lung carcinoma [heterozygous G12D](ATCC, HTB-53); ASPC1 pancreatic adenocarcinoma [homozygous G12D](ATCC, CRL-1682) and SW1990 pancreatic adenocarcinoma [homozygous G12D](ATCC CRL-2172). Cell lines were cultured essentially according to ATCC recommendations.
AGS, A-427, ASPC1, SW1990, and GP2D cells were plated in 96-well tissue culture plates at 4,000 cells/well and incubated at 37° C./5% CO2 for 72 hr in 100 μl of media. 3-fold serial dilutions of each test compound were prepared ranging from 20 μM to 1.02 nM. Each cell line was then treated with test compounds at various concentrations with a final concentration of 0.5% DMSO/well, and then incubated at 37° C./5% CO2 for 72 hr. 100 µl of CellTiter-Glo® Reagent (Promega Corporation, Madison, WI) was added to each well and processed according manufacturer's protocol. Results were analyzed and EC50 values were calculated in GraphPad 7 software.

KRAS(G12D)/SOS1 = target: T1, KRAS(G12D)/SOS1 (Homo sapiens, UniProt P01116, G12D); test: KRAS(G12D)/SOS1 homogeneous time-resolved fluorescence (HTRF) assay; format: binding; details: absence of GTP; 4° C., 3 hr
T1 construct: purchased Cisbio 63ADK000CB17PEH
T1 sequence (P01116 1-188 isoform P01116-2 G12D): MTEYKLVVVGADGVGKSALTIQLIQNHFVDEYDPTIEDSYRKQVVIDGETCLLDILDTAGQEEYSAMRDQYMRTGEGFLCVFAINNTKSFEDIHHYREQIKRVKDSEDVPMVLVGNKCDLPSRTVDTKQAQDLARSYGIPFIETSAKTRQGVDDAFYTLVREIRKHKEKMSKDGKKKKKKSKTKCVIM
Outline: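 Disruption of the KRAS(G12D)/SOS1 pairing, in the absence of GTP, was read by time-resolved FRET after a 3 hr sealed incubation at 4 °C. Test compounds spanned 20 µM down to 1.02 nM in 3-fold steps. IC50 values correspond to half-maximal inhibition.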

[2] = test system: AGS gastric carcinoma cells [heterozygous G12D]; test: Cancer cell line proliferation (CellTiter-Glo), AGS; format: cell-based; details: 72 hr treatment, read-out: AGS CTG (EC50)
Outline: (§1)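 First, plate 4,000 cells per well and incubate 72 hr (37° C., 5% CO2). Next, add compound from a 3-fold dilution series spanning 20 μM to 1.02 nM, keeping DMSO at 0.5%. Then incubate another 72 hr, add CellTiter-Glo, and derive EC50.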

[3] = test system: A-427 lung carcinoma cells [heterozygous G12D]; test: Cancer cell line proliferation (CellTiter-Glo), A-427; format: cell-based; details: A-427 cells, 72 hr treatment, read-out: A427 CTG (EC50)
Outline: as §1

SMILES	EC50 [1]	IC50 (KRAS(G12D)/SOS1)	EC50 [2]	EC50 [3]	EC50 ([1]; Homo sapiens, ASPC1, 72 h)	EC50 ([2]; Homo sapiens)	EC50 ([3]; Homo sapiens)
CC(C)c1cc(-c2nnc(O)n2-c2ccc(CN(C)[C@@H]3CN4CCC[C@]4(COc4nc(N5CC6CCC(C5)N6)c5cnc(-c6cc(O)cc7ccccc67)c(F)c5n4)C3)cc2)c(O)cc1O [Compound 43]	> 1000 nM	< 100 nM	> 1000 nM	> 1000 nM			
CC(C)c1cc(C(=O)N2Cc3ccc(CN(C)[C@H]4CN5CCC[C@@]5(COc5nc(N6CC7CCC(C6)N7)c6cnc(-c7cc(O)cc8ccccc78)c(F)c6n5)C4)cc3C2)c(O)cc1O [Compound 44]		< 100 nM			> 1000 nM	100 to 1000 nM	100 to 1000 nM
CC(C)c1cc(C(=O)N2Cc3ccc(CN(C)[C@H]4CN5CCC[C@]5(COc5nc(N6CC7CCC(C6)N7)c6cnc(-c7cc(O)cc8ccccc78)c(F)c6n5)C4)cc3C2)c(O)cc1O [Compound 45]		100 to 1000 nM			> 1000 nM	100 to 1000 nM	100 to 1000 nM
CC(C)c1cc(C(=O)N2Cc3ccc(CN4CCC(C(=O)N(C)[C@H]5CN6CCC[C@@]6(COc6nc(N7CC8CCC(C7)N8)c7cnc(-c8cc(O)cc9ccccc89)c(F)c7n6)C5)CC4)cc3C2)c(O)cc1O [Compound 49]		< 100 nM			> 1000 nM	100 to 1000 nM	100 to 1000 nM
CC(C)c1cc(C(=O)N2Cc3ccc(CN4CCC(C(=O)N(C)[C@H]5CN6CCC[C@]6(COc6nc(N7CC8CCC(C7)N8)c7cnc(-c8cc(O)cc9ccccc89)c(F)c7n6)C5)CC4)cc3C2)c(O)cc1O [Compound 50]		< 100 nM			100 to 1000 nM	100 to 1000 nM	100 to 1000 nM
Cc1cccc(-c2ncc3c(N4CC5CCC(C4)N5)nc(OC[C@@H]4C[C@H](N5CCN(Cc6ccc(-n7c(O)nnc7-c7cc(C(C)C)c(O)cc7O)cc6)CC5)CN4C)nc3c2F)c1C [Compound 52]		> 1000 nM			> 1000 nM	100 to 1000 nM	100 to 1000 nM
CCNC(=O)c1nnc(-c2cc(C(C)C)c(O)cc2O)n1-c1ccc(CN2CCN([C@H]3C[C@@H](COc4nc(N5CC6CCC(C5)N6)c5cnc(-c6cccc(C)c6C)c(F)c5n4)N(C)C3)CC2)cc1 [Compound 53]		< 100 nM			100 to 1000 nM	< 100 nM	100 to 1000 nM
CCNC(=O)c1nnc(-c2cc(C(C)C)c(O)cc2O)n1-c1ccc(CN2CCN([C@H]3C[C@@H](COc4nc(N5CC6CCC(C5)N6)c5cnc(-c6cccc7cccc(C#N)c67)c(F)c5n4)N(C)C3)CC2)cc1 [Compound 59]		> 1000 nM			100 to 1000 nM	< 100 nM	100 to 1000 nM
CCNC(=O)c1nnc(-c2cc(C(C)C)c(O)cc2O)n1-c1ccc(CN2CCN([C@H]3C[C@@H](COc4nc(N5CC6CCC(C5)N6)c5cnc(-c6ccccc6C(F)(F)F)c(F)c5n4)N(C)C3)CC2)cc1 [Compound 60]		> 1000 nM			100 to 1000 nM	< 100 nM	100 to 1000 nM
Cc1c(F)cccc1-c1ncc2c(N3CC4CCC(C3)N4)nc(OC[C@@H]3C[C@H](N4CCN(Cc5ccc6c(c5)CN(C(=O)c5cc(C(C)C)c(O)cc5O)C6)CC4)CN3C)nc2c1F [Compound 61]		> 1000 nM			100 to 1000 nM	100 to 1000 nM	100 to 1000 nM
CCNC(=O)c1nnc(-c2cc(C(C)C)c(O)cc2O)n1-c1ccc(CN2CCN([C@H]3C[C@@H](COc4nc(N5CC6CCC(C5)N6)c5cnc(-c6cccc(F)c6C)c(F)c5n4)N(C)C3)CC2)cc1 [Compound 62]		> 1000 nM			100 to 1000 nM	< 100 nM	< 100 nM
CC(C)c1cc(C(=O)N2Cc3ccc(CN4CCN([C@H]5C[C@@H](COc6nc(N7CC8CCC(C7)N8)c7cnc(-c8cccc9cccc(C#N)c89)c(F)c7n6)N(C)C5)CC4)cc3C2)c(O)cc1O [Compound 63]		100 to 1000 nM			100 to 1000 nM	100 to 1000 nM	< 100 nM
CC(C)c1cc(C(=O)N2Cc3ccc(CN4CCN(C[C@H]5CC[C@@H](COc6nc(N7CC8CCC(C7)N8)c7cnc(-c8cc(O)cc9ccccc89)c(F)c7n6)N5C)CC4)cc3C2)c(O)cc1O [Compound 64]		< 100 nM			100 to 1000 nM	100 to 1000 nM	100 to 1000 nM
CCNC(=O)c1nnc(-c2cc(C(C)C)c(O)cc2O)n1-c1ccc(CN2CCN(C[C@H]3CC[C@@H](COc4nc(N5CC6CCC(C5)N6)c5cnc(-c6cc(O)cc7ccccc67)c(F)c5n4)N3C)CC2)cc1 [Compound 65]		< 100 nM			100 to 1000 nM	< 100 nM	< 100 nM
CCNC(=O)c1nnc(-c2cc(C(C)C)c(O)cc2O)n1-c1ccc(CN2CCN(C[C@H]3CC[C@@H](COc4nc(N5CC6CCC(C5)N6)c5cnc(-c6cccc7ccccc67)c(F)c5n4)N3C)CC2)cc1 [Compound 66]		100 to 1000 nM			100 to 1000 nM	< 100 nM	< 100 nM
Cc1cccc2cccc(-c3ncc4c(N5CC6CCC(C5)N6)nc(OC[C@@H]5C[C@H](N6CCN(Cc7ccc8c(c7)CN(C(=O)c7cc(C(C)C)c(O)cc7O)C8)CC6)CN5C)nc4c3F)c12 [Compound 68]	> 1000 nM	> 1000 nM	100 to 1000 nM	100 to 1000 nM			
CCNC(=O)c1nnc(-c2cc(C(C)C)c(O)cc2O)n1-c1ccc(CN2CCN([C@H]3C[C@@H](COc4nc(N5CC6CNC(C6)C5)c5cnc(-c6cccc7cccc(C)c67)c(F)c5n4)N(C)C3)CC2)cc1 (some centres unmarked) [Compound 69]		> 1000 nM			> 1000 nM	100 to 1000 nM	100 to 1000 nM
CC(C)c1cc(C(=O)N2Cc3ccc(CN4CCC(C(=O)N5CCN(C[C@H]6CC[C@@H](COc7nc(N8CC9CCC(C8)N9)c8cnc(-c9cc(O)cc%10ccccc9%10)c(F)c8n7)N6C)CC5)CC4)cc3C2)c(O)cc1O [Compound 70]		< 100 nM			> 1000 nM	100 to 1000 nM	100 to 1000 nM
C#Cc1cccc2cc(O)cc(-c3ncc4c(N5CC6CCC(C5)N6)nc(OCC5(CN6CCN(CC7CCN(c8ccc9c(c8)CN(C(=O)c8cc(C(C)C)c(O)cc8O)C9)CC7)CC6)CC5)nc4c3F)c12 [Compound 133]		< 100 nM			100 to 1000 nM	100 to 1000 nM	100 to 1000 nM
C#Cc1cccc2cc(O)cc(-c3ncc4c(N5CC6CNC(C6)C5)nc(OCC5(CN6CCN(CC7CCN(Cc8ccc(-n9c(C(=O)NC(C)C(F)(F)F)nnc9-c9cc(C(C)C)c(O)cc9O)cc8)CC7)CC6)CC5)nc4c3F)c12 (centres unmarked) [Compound 134]		< 100 nM			100 to 1000 nM	100 to 1000 nM	100 to 1000 nM
C#Cc1cccc2cc(O)cc(-c3ncc4c(N5CC6CNC(C6)C5)nc(OCC5(CN6CCN(CC7CCN(Cc8ccc(-n9c(C(=O)NCC(F)(F)F)nnc9-c9cc(C(C)C)c(O)cc9O)cc8)CC7)CC6)CC5)nc4c3F)c12 (centres unmarked) [Compound 135]		< 100 nM			100 to 1000 nM	100 to 1000 nM	100 to 1000 nM
C#Cc1cccc2cc(O)cc(-c3ncc4c(N5CC6CNC(C6)C5)nc(OCC5(CN6CCN(CC7CCN(C(=O)C8CCN(Cc9ccc%10c(c9)CN(C(=O)c9cc(C(C)C)c(O)cc9O)C%10)CC8)CC7)CC6)CC5)nc4c3F)c12 (centres unmarked) [Compound 136]		100 to 1000 nM			> 1000 nM	100 to 1000 nM	100 to 1000 nM
CC(C)c1cc(-c2nnc(C(=O)NC(C)C(F)(F)F)n2-c2ccc(CN3CCC(CN4CCN(CC5(COc6nc(N7CC8CCC(C7)N8)c7cnc(-c8cccc9ccccc89)c(F)c7n6)CC5)CC4)CC3)cc2)c(O)cc1O (centres unmarked) [Compound 137]		100 to 1000 nM			100 to 1000 nM	100 to 1000 nM	100 to 1000 nM
C#Cc1cccc2cc(O)cc(-c3ncc4c(N5CC6CCC(C5)N6)nc(OCC5(CN6CC[C@H](C(=O)N7CCN(Cc8ccc9c(c8)CN(C(=O)c8cc(C(C)C)c(O)cc8O)C9)CC7)C6)CC5)nc4c3F)c12 [Compound 139]		< 100 nM			> 1000 nM	100 to 1000 nM	100 to 1000 nM
C#Cc1cccc2cc(O)cc(-c3ncc4c(N5CC6CCC(C5)N6)nc(OCC5(CN6CCC(OC7CCN(Cc8ccc(-n9c(C(=O)NC(C)C(F)(F)F)nnc9-c9cc(C(C)C)c(O)cc9O)cc8)CC7)CC6)CC5)nc4c3F)c12 (centres unmarked) [Compound 140]		< 100 nM			< 100 nM	< 100 nM	< 100 nM
C#Cc1cccc2cc(O)cc(-c3ncc4c(N5CC6CCC(C5)N6)nc(OCC5(CN6CCC(OC7CCN(C(=O)C8CCN(Cc9ccc%10c(c9)CN(C(=O)c9cc(C(C)C)c(O)cc9O)C%10)CC8)CC7)CC6)CC5)nc4c3F)c12 [Compound 141]		< 100 nM			100 to 1000 nM	< 100 nM	< 100 nM
